# Source: PubChem BioAssay (NCI)
#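 Step 1: Grow cells in 96-well plates. Step 2: Expose to compound for 48 hours at 5 concentrations. Step 3: Interpolate endpoints linearly; if unreached, use highest concentration. Abbreviation: GI50, concentration required for 50% inhibition of growth. Definition used: TGI = concentration required for complete inhibition of growth.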
# How the values were obtained:
# Assay in all cases: NCI tumour cell line growth inhibition, 48 h
# SK-MEL-2 melanoma = tested on: SK-MEL-2 melanoma
# ACHN renal = tested on: ACHN renal
# HL-60(TB) leukemia = tested on: HL-60(TB) leukemia
# SNB-75 CNS = tested on: SNB-75 CNS
# A498 renal = tested on: A498 renal
# MOLT-4 leukemia = tested on: MOLT-4 leukemia
# HCC-2998 colon = tested on: HCC-2998 colon
# EKVX NSCLC = tested on: EKVX NSCLC
# DU-145 prostate = tested on: DU-145 prostate
# PC-3 prostate = tested on: PC-3 prostate
compound,measurement,setting,value
Cc1nc2c(o1)C(=Nc1ccccc1)c1nc(C)oc1C2=Nc1ccccc1,TGI,SK-MEL-2 melanoma,72.6 µM
same,TGI,ACHN renal,33.6 µM
same,TGI,HL-60(TB) leukemia,> 100 µM
same,TGI,SNB-75 CNS,28.6 µM
same,TGI,A498 renal,3.01 µM
same,TGI,MOLT-4 leukemia,72.6 µM
same,TGI,HCC-2998 colon,80.3 µM
O=C(/C=C/c1cccc([N+](=O)[O-])c1)c1ccc([N+](=O)[O-])cc1,TGI,SK-MEL-2 melanoma,> 100 µM
same,TGI,ACHN renal,> 100 µM
same,TGI,HL-60(TB) leukemia,> 100 µM
same,TGI,SNB-75 CNS,> 100 µM
same,TGI,EKVX NSCLC,> 100 µM
same,TGI,A498 renal,> 100 µM
same,TGI,MOLT-4 leukemia,> 100 µM
same,TGI,HCC-2998 colon,> 100 µM
COC(=O)C1C(=O)O[C@@H](c2cc(OC)c(OC)cc2OC)C1C(=O)OC (mixture of isomers),TGI,ACHN renal,> 100 µM
same,TGI,HL-60(TB) leukemia,> 100 µM
same,TGI,SNB-75 CNS,> 100 µM
same,TGI,EKVX NSCLC,> 100 µM
same,TGI,A498 renal,> 100 µM
same,TGI,MOLT-4 leukemia,> 100 µM
same,TGI,HCC-2998 colon,> 100 µM
CCNC(=O)Oc1ccc(/C(=C(/C)Cc2ccc(OC)cc2)c2ccc(OCCN(CC)CC)cc2)cc1,GI50,SK-MEL-2 melanoma,1.85 µM
same,TGI,SK-MEL-2 melanoma,3.62 µM
same,GI50,ACHN renal,1.69 µM
same,TGI,ACHN renal,3.18 µM
same,GI50,DU-145 prostate,2.36 µM
same,TGI,DU-145 prostate,5.83 µM
same,GI50,HL-60(TB) leukemia,1.94 µM
same,TGI,HL-60(TB) leukemia,4.56 µM
same,GI50,SNB-75 CNS,1.69 µM
same,TGI,SNB-75 CNS,4.93 µM
same,GI50,EKVX NSCLC,1.7 µM
same,TGI,EKVX NSCLC,5.03 µM
same,GI50,A498 renal,2.58 µM
same,TGI,A498 renal,11.1 µM
same,GI50,MOLT-4 leukemia,2.64 µM
same,TGI,MOLT-4 leukemia,9.71 µM
same,GI50,HCC-2998 colon,1.7 µM
same,TGI,HCC-2998 colon,3.29 µM
CCOc1ccccc1N=Nc1c(-c2ccccc2)nn(C(=O)CC(=O)Nc2cccc(C)c2)c1-c1ccccc1,TGI,SK-MEL-2 melanoma,> 100 µM
same,TGI,ACHN renal,> 100 µM
same,TGI,HL-60(TB) leukemia,> 100 µM
same,TGI,SNB-75 CNS,> 100 µM
same,TGI,EKVX NSCLC,> 100 µM
same,TGI,MOLT-4 leukemia,> 100 µM
same,TGI,HCC-2998 colon,> 100 µM
CNS(=O)(=O)NNS(=O)(=O)c1ccc(OC)cc1,TGI,SK-MEL-2 melanoma,> 100 µM
same,TGI,ACHN renal,> 100 µM
same,TGI,HL-60(TB) leukemia,> 100 µM
same,TGI,SNB-75 CNS,> 100 µM
same,TGI,EKVX NSCLC,> 100 µM
same,TGI,A498 renal,> 100 µM
same,TGI,MOLT-4 leukemia,> 100 µM
same,TGI,HCC-2998 colon,> 100 µM
NC1=NN(c2ccccc2)C(=O)C1C(=O)C(=O)Nc1ccc(Cl)c(Cl)c1 (stereo unspecified),TGI,SK-MEL-2 melanoma,> 100 µM
same,TGI,ACHN renal,> 100 µM
same,TGI,HL-60(TB) leukemia,> 100 µM
same,TGI,SNB-75 CNS,85 µM
same,TGI,EKVX NSCLC,> 100 µM
same,TGI,A498 renal,> 100 µM
same,TGI,MOLT-4 leukemia,> 100 µM
same,TGI,HCC-2998 colon,> 100 µM
CCNC(=O)OCc1c(COC(=O)NCC)c(-c2ccc(Cl)c(Cl)c2)n2c1CCC2,TGI,SK-MEL-2 melanoma,28.1 µM
same,TGI,ACHN renal,37.5 µM
same,TGI,HL-60(TB) leukemia,22.2 µM
same,TGI,SNB-75 CNS,27.7 µM
same,TGI,MOLT-4 leukemia,56.3 µM
same,TGI,HCC-2998 colon,27.7 µM
COc1cc(/C=N/N=C(\N)NO)c(Cl)cc1O,TGI,SK-MEL-2 melanoma,> 100 µM
same,TGI,ACHN renal,> 100 µM
same,TGI,EKVX NSCLC,> 100 µM
same,TGI,A498 renal,> 100 µM
same,TGI,MOLT-4 leukemia,> 100 µM
same,TGI,HCC-2998 colon,> 100 µM
N#CC(C(=O)/C(=N\NC(N)=O)C(C#N)c1ccccc1)c1ccccc1 (stereo unspecified),TGI,SK-MEL-2 melanoma,> 100 µM
same,TGI,ACHN renal,> 100 µM
same,TGI,HL-60(TB) leukemia,> 100 µM
same,TGI,SNB-75 CNS,> 100 µM
same,TGI,EKVX NSCLC,> 100 µM
same,TGI,A498 renal,> 100 µM
same,TGI,MOLT-4 leukemia,> 100 µM
same,TGI,HCC-2998 colon,> 100 µM
COC1(OC)C2(Cl)C(Cl)=C(Cl)C1(Cl)C1C2C2CC1(C(=O)O)c1ccccc12 (stereo unspecified),TGI,ACHN renal,> 100 µM
same,TGI,HL-60(TB) leukemia,43.1 µM
same,TGI,A498 renal,> 100 µM
same,TGI,MOLT-4 leukemia,43.3 µM
same,TGI,HCC-2998 colon,50.7 µM
Cc1cc2c(-c3nc4ccccn4c3N)c(O)c(O)cc2c(O)c1-c1c(C)cc2c(-c3nc4ccccn4c3N)c(O)c(O)cc2c1O,GI50,PC-3 prostate,0.692 µM
same,TGI,PC-3 prostate,> 25 µM
same,GI50,SK-MEL-2 melanoma,0.961 µM
same,TGI,SK-MEL-2 melanoma,23.4 µM
same,GI50,ACHN renal,1.63 µM
same,TGI,ACHN renal,> 25 µM
same,GI50,HL-60(TB) leukemia,1.64 µM
same,TGI,HL-60(TB) leukemia,> 25 µM
same,GI50,SNB-75 CNS,1.02 µM
same,TGI,SNB-75 CNS,> 25 µM
same,GI50,EKVX NSCLC,0.965 µM
same,TGI,EKVX NSCLC,> 25 µM
same,GI50,MOLT-4 leukemia,1.01 µM
same,TGI,MOLT-4 leukemia,> 25 µM
same,GI50,HCC-2998 colon,1.59 µM
same,TGI,HCC-2998 colon,> 25 µM
O=C1c2ccccc2C2CCC1c1ccccc12 (stereo unspecified),TGI,SK-MEL-2 melanoma,94 µM
same,TGI,ACHN renal,> 100 µM
same,TGI,HL-60(TB) leukemia,38 µM
same,TGI,SNB-75 CNS,> 100 µM
same,TGI,EKVX NSCLC,> 100 µM
same,TGI,A498 renal,> 100 µM
same,TGI,MOLT-4 leukemia,45.7 µM
same,TGI,HCC-2998 colon,> 100 µM
COC1OC2COC(C)(C)OC2C(OC(C)=O)C1NC(=O)N(CCCl)N=O (stereo unspecified),TGI,SK-MEL-2 melanoma,> 100 µM
same,TGI,ACHN renal,> 100 µM
same,TGI,HL-60(TB) leukemia,53.3 µM
same,TGI,SNB-75 CNS,> 100 µM
same,TGI,EKVX NSCLC,> 100 µM
same,TGI,A498 renal,> 100 µM
same,TGI,MOLT-4 leukemia,> 100 µM
same,TGI,HCC-2998 colon,> 100 µM
Clc1cccc(C2N3CCCCC3[C@@H]3c4[nH]c5ccccc5c4CCN23)c1 (stereo partly specified),TGI,SK-MEL-2 melanoma,40.1 µM
same,TGI,ACHN renal,69.4 µM
same,TGI,HL-60(TB) leukemia,44.1 µM
same,TGI,SNB-75 CNS,85.4 µM
same,TGI,EKVX NSCLC,> 100 µM
same,TGI,A498 renal,77.3 µM
same,TGI,MOLT-4 leukemia,60.5 µM
same,TGI,HCC-2998 colon,99.7 µM
C/C=C1\CN2CCc3c([nH]c4ccccc34)C2CC1CCO (stereo unspecified),TGI,SK-MEL-2 melanoma,> 100 µM
same,TGI,ACHN renal,> 100 µM
same,TGI,HL-60(TB) leukemia,> 100 µM
same,TGI,SNB-75 CNS,> 100 µM
same,TGI,EKVX NSCLC,> 100 µM
same,TGI,A498 renal,> 100 µM
same,TGI,MOLT-4 leukemia,> 100 µM
same,TGI,HCC-2998 colon,> 100 µM
